Experimental data published in patent US20090181098A1, “Hmg-Co-a Reductase Inhibitor Enhancement of Bone and Cartilage” (OsteoScreen IP, LLC, priority 2006, published 2009).

Tests used:
[1] = poly(DL-lactide) nanoparticles
Procedure: The test material is lovastatin in nanoparticles prepared as described above. […] The test articles are nanoparticles with and without lovastatin. […] The lovastatin levels are determined by HPLC and the release curved is followed throughout the experiment.

[2] = test system: femur fracture model
Description: In accordance with the study, the clinical focus involves creating uniform and reproducible fracture defects utilizing a pinned closed transverse rat femoral model chosen because it has been well defined and fully characterized by mechanical and histologic methods. Advantages of this model include reproducibility, defect uniformity, and a rapid 5 weeks to clinical union healing phase. The properties of the bioactive coating are investigated in preliminary studies in vitro and in vivo using the explanted calvarial culture and the local calvarial injection model including drug-release kinetics, degradation and stability. The aims of the study are: (1) to evaluate the effect of controlled-released locally administered lovastatin on callus formation, progression and fracture healing using X-ray analysis of fracture healing. At the end of the experiment, the fractured limb will be excised and X-rayed after removal of stabilizing pins. These X-rays will be assessed for evidence of healing of the fracture. They will be scored by 3 independent observers for healing of the fracture; (2) to evaluate the effect of controlled released lovastatin on biomechanical parameters by three-point bending and micro computer tomography (uCT); and (3) to evaluate by uCT bone microarchitecture at callus site and bone healing. […]

[3] = Serum liver and muscle enzymes (ALT, AST, AP, LDH, CPK) and myotoxicity after dermal lovastatin; conditions: for ALT / AP / AST / CPK / LDH: end of 5 day treatment
Procedure: Blood samples were obtained at the end of the five day treatment for determination of liver and muscle enzymes (alanine aminotransferase (ALT), aspartate aminotransferase (AST), alkaline phosphatase (AP), and lactic dehydrogenase (LDH) by radioimmunoassays (Esoterix, San Antonio, Tex.). Kinetic quantitative determination of […] (CPK) in serum was estimated using a kit from Stanbio Laboratory (Boerne, Tex.). The concentration of osteocalcin was measured using a sandwich ELISA assay supplied by from Biomedical Technologies Inc.
Three-month old virgin female Sprague Dawley rats were purchased from Harlan Laboratories, LTD (Indianapolis, Ind.). Experiments were performed using either intact, bilaterally ovariectomized (OVX) or sham-operated (SHAM) rats with treatment starting 5 days after surgery in the latter groups. Rats were weight-matched and divided into treatment groups (n=10). Compounds were administered by daily transdermal application for 5 days only or 5 days/week for 5 weeks when specified. Animals were pair-fed throughout the experimental period and weekly body weights determined and dosage adjusted accordingly. At the completion of the experiment, animals were anesthetized with a ketamine (10 mg/ml) at a dose of 100 mg/kg body weight and euthanized by cervical dislocation.

[4] = Plasma lovastatin levels after a single oral or dermal dose, estimated by HMG-CoA reductase inhibition assay; format: in vivo, rat
Procedure: The area under the plasma concentration-time curve (AUC0-24 hr) of lovastatin equivalence was calculated using the trapezoidal rule for both oral and dermal application of lovastatin. For oral administration, a suspension of lovastatin was prepared in 0.5% methylcellulose and administered by gavage. For dermal administration, lovastatin was mixed initially with 100% DMSO and in subsequent experiments, with hydrophilic petrolatum and applied to the back of the animals after shaving (area of application=6.45 cm^2). In later experiments, the dermal formulation was modified and a aqueous alkanolic gel with a carbomer-based formulation containing water, ethanol, Carbomer 940, cholesterol, BHA and TEA was used.

[5] = dermal, hydrophilic petrolatum, 1 mg/kg/day
[6] = dermal, hydrophilic petrolatum, 5 mg/kg/day

SMILES: CC[C@H](C)C(=O)O[C@H]1C[C@@H](C)C=C2C=C[C@H](C)[C@H](CC[C@@H]3C[C@@H](O)CC(=O)O3)[C@H]21 [lovastatin]
- Release rate of lovastatin from nanoparticles [1]: about 2 %/day
- Lowest lovastatin amount tested giving a significant increase in radiographic score ([2]; released from nanobeads at fracture site): 0.2 µg/day
- Lovastatin release giving maximum radiographic score ([2]; single injection of nanobeads at fracture site, 2 weeks): 1.5 µg/day
- Change in liver and muscle skeletal tissue enzymes (AST, ALT, AP, LDH, CPK) ([3]; dermal, aqueous alkanolic gel, 0.01 to 0.5 mg/kg/day, end of treatment, sham/ovx rats): No significant changes
- ALT [3, 5]: 55 ± 3 μ/L
- AP [3, 5]: 123 ± 6 μ/L
- AST [3, 5]: 110 ± 4 μ/L
- CPK [3, 5]: 441 ± 61 μ/L
- LDH [3, 5]: 349 ± 47 μ/L
- ALT [3, 6]: 57 ± 2 μ/L
- AP [3, 6]: 115 ± 5 μ/L
- AST [3, 6]: 128 ± 7 μ/L
- CPK [3, 6]: 578 ± 45 μ/L
- LDH [3, 6]: 528 ± 67 μ/L
- Change in liver and muscle enzymes (ALT, AST, AP, LDH, CPK) vs vehicle ([3]; dermal, hydrophilic petrolatum, 1 and 5 mg/kg/day, 5 days): No changes
- Serum creatine protein kinase (CPK), treated groups vs control ([3]; hydroalcoholic gel, 5 days, sham and ovx rats): No significant changes
- Non-myotoxic dose (50 mg/kg/day) relative to effective dose (0.01 mg/kg) ([3]; transdermal): 5000 fold
- Myotoxicity by CPK measurements and morphologic examination of skeletal muscles ([3]; transdermal, doses up to 50 mg/kg/day): not observed
- Plasma levels, aqueous alkanolic gel compared with hydrophilic petrolatum ([4]; single dermal dose): higher plasma levels
- Time to peak plasma levels ([4]; single dermal dose in aqueous alkanolic gel): within the first hour
- AUC0-24 h, aqueous alkanolic gel relative to petrolatum formulation ([4]; single dermal dose, both doses tested (6.25 and 25 mg/kg)): more than double
- Plasma concentrations, dermal compared with oral ([4]; single dose 10 or 50 mg/kg, dermal in 100% DMSO vs gavage in 0.5% methylcellulose, 1, 3, 6, 24 h): greater, less variable and more prolonged
